2 compounds from the SangsterLogP compilation can be followed below.

Each structure is given as a SMILES string.

The conditions of this series: pH 7.4.

Take `NS(=O)(=O)c1cc2cc(C(=O)NCC(O)CO)sc2s1` (configuration not stated): the logD (as a rule, lipophilicity at a set pH, counting ionised and neutral species) was 0.35.
For `CS(=O)CCNC(=O)c1cc2cc(S(N)(=O)=O)sc2s1` (configuration not stated) the value was -0.15.
